Assay results taken from PubChem BioAssay (NCI).
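Method: 48-hour compound exposure of cells in 96-well plates, five concentrations, linear interpolation of endpoints. At the GI50, growth is halved. TGI denotes the concentration required for complete inhibition of growth.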

Experiments:
Test in all cases: DTP human tumour cell line panel, 48 h
SNB-75 CNS = tested on: SNB-75 CNS
MCF7 breast = tested on: MCF7 breast
CAKI-1 renal = tested on: CAKI-1 renal
ACHN renal = tested on: ACHN renal
SK-MEL-5 melanoma = tested on: SK-MEL-5 melanoma
SK-OV-3 ovarian = tested on: SK-OV-3 ovarian
NCI/ADR-RES ovarian = tested on: NCI/ADR-RES ovarian
KM12 colon = tested on: KM12 colon
BT-549 breast = tested on: BT-549 breast
EKVX NSCLC = tested on: EKVX NSCLC
IGROV1 ovarian = tested on: IGROV1 ovarian
TK-10 renal = tested on: TK-10 renal
SN12C renal = tested on: SN12C renal
HOP-62 NSCLC = tested on: HOP-62 NSCLC
OVCAR-4 ovarian = tested on: OVCAR-4 ovarian
K-562 leukemia = tested on: K-562 leukemia
HT29 colon = tested on: HT29 colon
SF-295 CNS = tested on: SF-295 CNS
LOX IMVI melanoma = tested on: LOX IMVI melanoma
786-0 renal = tested on: 786-0 renal
HS 578T breast = tested on: HS 578T breast
RXF 393 renal = tested on: RXF 393 renal
M14 melanoma = tested on: M14 melanoma
A498 renal = tested on: A498 renal
MOLT-4 leukemia = tested on: MOLT-4 leukemia
UACC-62 melanoma = tested on: UACC-62 melanoma
SNB-19 CNS = tested on: SNB-19 CNS
SR leukemia = tested on: SR leukemia
MDA-MB-435 = tested on: MDA-MB-435
T-47D breast = tested on: T-47D breast
NCI-H226 lung = tested on: NCI-H226 lung
OVCAR-3 ovarian = tested on: OVCAR-3 ovarian
HL-60(TB) leukemia = tested on: HL-60(TB) leukemia
UO-31 renal = tested on: UO-31 renal
SF-539 CNS = tested on: SF-539 CNS
MALME-3M melanoma = tested on: MALME-3M melanoma
A549 NSCLC = tested on: A549 NSCLC
OVCAR-5 ovarian = tested on: OVCAR-5 ovarian
HOP-92 NSCLC = tested on: HOP-92 NSCLC
HCT-15 colon = tested on: HCT-15 colon
COLO 205 colon = tested on: COLO 205 colon
NCI-H23 lung = tested on: NCI-H23 lung
U251 CNS = tested on: U251 CNS
SW-620 colon = tested on: SW-620 colon
OVCAR-8 ovarian = tested on: OVCAR-8 ovarian
RPMI-8226 leukemia = tested on: RPMI-8226 leukemia
SK-MEL-28 melanoma = tested on: SK-MEL-28 melanoma
HCC-2998 colon = tested on: HCC-2998 colon
NCI-H522 lung = tested on: NCI-H522 lung
PC-3 prostate = tested on: PC-3 prostate
MDA-MB-231 breast = tested on: MDA-MB-231 breast
UACC-257 melanoma = tested on: UACC-257 melanoma
CCRF-CEM leukemia = tested on: CCRF-CEM leukemia
NCI-H460 lung = tested on: NCI-H460 lung
SK-MEL-2 melanoma = tested on: SK-MEL-2 melanoma
HCT-116 colon = tested on: HCT-116 colon
DU-145 prostate = tested on: DU-145 prostate
SF-268 CNS = tested on: SF-268 CNS

## Cc1cc(C(=O)Nc2nc3cccc(Cl)c3n2[C@@H]2CCCCN(C(=O)/C=C/CN(C)C)C2)ccn1
SNB-75 CNS
  GI50: 5.63 µM
  TGI: 19 µM
MCF7 breast
  GI50: 4.95 µM
  TGI: 20.3 µM
CAKI-1 renal
  GI50: 0.58 µM
  TGI: 17.2 µM
ACHN renal
  GI50: 0.406 µM
  TGI: 16.3 µM
SK-MEL-5 melanoma
  GI50: 8.97 µM
  TGI: 22.8 µM
SK-OV-3 ovarian
  GI50: 0.0792 µM
  TGI: 9.03 µM
NCI/ADR-RES ovarian
  GI50: 5.37 µM
  TGI: 49 µM
KM12 colon
  GI50: 9.43 µM
  TGI: 25.6 µM
BT-549 breast
  GI50: 7.26 µM
  TGI: 20.9 µM
EKVX NSCLC
  GI50: 0.518 µM
  TGI: 18.7 µM
IGROV1 ovarian
  GI50: 0.634 µM
  TGI: 15.1 µM
TK-10 renal
  GI50: 1.07 µM
  TGI: 16.4 µM
SN12C renal
  GI50: 3.51 µM
  TGI: 22.2 µM
HOP-62 NSCLC
  GI50: 12.5 µM
  TGI: 27.4 µM
OVCAR-4 ovarian
  GI50: 7.18 µM
  TGI: 26.4 µM
K-562 leukemia
  GI50: 9.58 µM
  TGI: 61.5 µM
HT29 colon
  GI50: 9.91 µM
  TGI: 30.2 µM
SF-295 CNS
  GI50: 13.9 µM
  TGI: 28.6 µM
LOX IMVI melanoma
  GI50: 10.1 µM
  TGI: 23.9 µM
786-0 renal
  GI50: 3.78 µM
  TGI: 21.6 µM
HS 578T breast
  GI50: 9.11 µM
  TGI: 37.3 µM
RXF 393 renal
  GI50: 9.35 µM
  TGI: 25.1 µM
M14 melanoma
  GI50: 13.7 µM
  TGI: 27.5 µM
A498 renal
  GI50: 0.514 µM
  TGI: 14.1 µM
MOLT-4 leukemia
  GI50: 7.13 µM
  TGI: 33.3 µM
UACC-62 melanoma
  GI50: 15.3 µM
  TGI: 31.5 µM
SNB-19 CNS
  GI50: 12.9 µM
  TGI: 31.2 µM
SR leukemia
  GI50: 11.3 µM
  TGI: 35.5 µM
MDA-MB-435
  GI50: 9.49 µM
  TGI: 23.3 µM
T-47D breast
  GI50: 1.5 µM
  TGI: 23.7 µM
NCI-H226 lung
  GI50: 16.3 µM
  TGI: 32.1 µM
OVCAR-3 ovarian
  GI50: 4.08 µM
  TGI: 18.4 µM
HL-60(TB) leukemia
  GI50: 17 µM
  TGI: 38.3 µM
UO-31 renal
  GI50: 2.71 µM
  TGI: 20.3 µM
SF-539 CNS
  GI50: 15.1 µM
  TGI: 29.5 µM
MALME-3M melanoma
  GI50: 18.2 µM
  TGI: 34 µM
A549 NSCLC
  GI50: 6.37 µM
  TGI: 31.8 µM
OVCAR-5 ovarian
  GI50: 17.7 µM
  TGI: 47.6 µM
HOP-92 NSCLC
  GI50: 6.94 µM
  TGI: 32.2 µM
HCT-15 colon
  GI50: 4.42 µM
  TGI: 19.7 µM
COLO 205 colon
  GI50: 7.69 µM
  TGI: 22.4 µM
NCI-H23 lung
  GI50: 12.9 µM
  TGI: 38 µM
U251 CNS
  GI50: 11.2 µM
  TGI: 26 µM
SW-620 colon
  GI50: 14.6 µM
  TGI: 31.5 µM
OVCAR-8 ovarian
  GI50: 11.4 µM
  TGI: 40.3 µM
RPMI-8226 leukemia
  GI50: 9.25 µM
  TGI: 32 µM
SK-MEL-28 melanoma
  GI50: 12.8 µM
  TGI: 27 µM
HCC-2998 colon
  GI50: 15.6 µM
  TGI: 30.9 µM
NCI-H522 lung
  GI50: 0.108 µM
  TGI: 14.4 µM
PC-3 prostate
  GI50: 9.22 µM
  TGI: 28.2 µM
MDA-MB-231 breast
  GI50: 13 µM
  TGI: 28.1 µM
UACC-257 melanoma
  GI50: 18.8 µM
  TGI: 34.1 µM
CCRF-CEM leukemia
  GI50: 12.5 µM
  TGI: 56.2 µM
NCI-H460 lung
  GI50: 8.7 µM
  TGI: 23.1 µM
SK-MEL-2 melanoma
  GI50: 17.5 µM
  TGI: 34.2 µM
HCT-116 colon
  GI50: 6.5 µM
  TGI: 19.5 µM
DU-145 prostate
  GI50: 6.19 µM
  TGI: 45.2 µM
SF-268 CNS
  GI50: 10.6 µM
  TGI: 28.3 µM
